Reference: patent US20050203056A1, “Carboxyl-reduced derivatives of hyaluronic acid, preparation thereof, use thereof as a medicinal product and the pharmaceutical compositions containing them” (Aventis Pharma S.A., priority 2003, published 2005)

How the values were obtained:
aggrecanase = assay: Effect on the aggrecanase in synovial fluids or on preparations of recombinant ADAMTS protein (BC-3 ELISA, Agg1mut substrate); type: biochemical
Procedure: Effect of the carboxyl-reduced derivatives on the aggrecanase in synovial fluids or on preparations of recombinant ADAMTS protein.
The analysis is carried out on 96-well plates.
In each well, a fixed volume of synovial fluid or aggrecanase activity generating a known increase, between 1.0 and 1.4 absorbance units (405 nm), under the conditions of the analysis, is mixed with 3 μl of solution of compound from the respective dilution step. Dulbecco's modified Eagle's medium (DMEM) is added to each well to give a final volume of 300 μl. The plate is then incubated for 1 hour at 37° C. in a carbon dioxide atmosphere.
After the addition of 5 μl of a solution of […] of recombinant substrate Agglmut in DMEM to each well (substrate as described by Bartnik E. et al., EP 785274, 1997), the reagent mixture is incubated for 4 hours at 37° C. under a carbon dioxide atmosphere.
In a first step, the microplate is coated with 100 μl per well of a commercial goat anti-mouse IgG antibody for 1 hour at ambient temperature (5 μg/ml in a phosphate buffered saline solution, pH 7.4 [PBS buffer]). After washing with the PBS buffer containing 0.1% of Tween-20 (washing buffer), the wells are blocked by means of a step consisting of a one hour incubation with 100 μl per well of 5% bovine serum albumin in a PBS buffer containing 0.05% of Tween-20. Following another rinse with the washing buffer, each well is incubated with 100 μl of a solution, diluted to 1:1000, of BC-3 antibody in a PBS buffer containing 0.05% of Tween 20 and 0.5% of bovine serum albumin, at ambient temperature for one hour. This antibody recognizes the typical aggrecanase cleavage fragments (Hughes C. E. et al., Biochem. J. 305 (3), 799-804, 1995).
After another rinse of the analytical plate with the washing buffer, the complete set of mixtures originating from the preceding digestion is transferred to this plate, well by well, and incubated at ambient temperature for one hour. The plate is again washed as above. Next, 100 μl of the second antibody (anti-human IgG antibody labeled with peroxidase, 1:1000 in PBS containing 0.5% of BSA and 0.05% of Tween-20) are added to each well, with subsequent incubation at ambient temperature again for one hour. After a final rinse with the washing buffer, the color development is initiated by adding 100 μl of ABTS substrate solution (2 mg/ml, 2,2′-azinobis(3-ethyl-benzothiazoline)sulfonic acid) in 40 mM of sodium citrate plus 60 mM of disodium hydrogen phosphate, adjusted to a pH of 4.4 by adding acetic acid; 0.25 μl of 35% hydrogen peroxide added per ml immediately before measurement). […] The development is stopped as soon as the maximum signal (405 nm) in the absorbance range of 1.0 to 1.4 is reached.

bovine factor Xa [1] = molecular target: T1, bovine factor Xa (Bos taurus, UniProt P00743); conditions: calibrated against Enoxaparin
T1 sequence (P00743 234-492 limits assumed): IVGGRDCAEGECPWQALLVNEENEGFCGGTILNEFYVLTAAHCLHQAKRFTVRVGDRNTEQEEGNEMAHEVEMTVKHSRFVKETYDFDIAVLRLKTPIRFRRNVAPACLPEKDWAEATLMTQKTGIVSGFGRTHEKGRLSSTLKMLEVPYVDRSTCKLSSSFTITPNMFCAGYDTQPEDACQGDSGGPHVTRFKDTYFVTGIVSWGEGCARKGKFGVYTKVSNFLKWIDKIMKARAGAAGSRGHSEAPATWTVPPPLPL
Procedure: For the calibration, a standard sample of low molecular weight heparin (Enoxaparin) was used as reference.
The serial dilutions of the assay compound are prepared in a 0.046 M Tris buffer, pH 8.4, containing 0.15 M NaCl, 0.007 M EDTA, 0.1% of Tween 80 and 0.12 IU/ml of human antithrombin III. The samples of 50 μl of the respective dilutions are incubated with 50 μl of bovine factor Xa (13.6 U/ml) at 37° C. for 80 seconds. Next, 50 μl of chromogenic substrate, 1.1 mM S-2765, are added. […] The activity of the deblocked factor Xa is indicated by the emission of p-nitroaniline from the substrate.

[2] = molecular target: T2, human neutrophil elastase (Homo sapiens, UniProt P08246)
T2 sequence (P08246 30-267): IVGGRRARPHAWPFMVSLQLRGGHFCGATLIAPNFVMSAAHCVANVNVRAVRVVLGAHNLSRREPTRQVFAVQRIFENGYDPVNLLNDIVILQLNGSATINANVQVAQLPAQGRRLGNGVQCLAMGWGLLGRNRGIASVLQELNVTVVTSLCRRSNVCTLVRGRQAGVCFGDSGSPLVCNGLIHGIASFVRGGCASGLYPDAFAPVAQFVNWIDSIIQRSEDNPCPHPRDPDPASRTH
Procedure: A commercially available enzyme (for example, human neutrophil elastase, sigma No. E8140) is reconstituted in aliquots of 0.1 mg per vial with 0.276 ml of 50 mM sodium acetate buffer, pH 5.5, containing 200 mM NaCl (stock solution of the enzyme); 11 μl of this stock solution are diluted with 1.1 ml of the HEPES buffer above (enzyme assay solution).
The substrate solution is prepared by dissolving 118 mg of methoxy-succinyl-L-Ala-L-Ala-L-Pro-L-Val-p-nitro-anilide in 1 ml of DMSO (stock solution, for example sigma No. M4765). In view of the application in the analysis, 9 μl of stock solution are then diluted in 1.19 ml of water.
The serial dilutions of the assay compounds are prepared in 100 mM of HEPES buffer containing 500 mM NaCl. The analysis is carried out on colorless 96-well polystyrene microplates (for example, Corning Costar, No. 3695).
10 μl of assay enzyme solution are mixed with 10 μl of the respective diluted compound solution and 10 μl of the substrate solution. After incubation for 15 min, the cleavage of the substrate is read as increase in absorbance at 405 nm.

bovine factor Xa [3] = molecular target: T1, bovine factor Xa; conditions: calibration reference; cited from earlier work

| Substance | IC50 (μg/ml) for inhibition (aggrecanase) | % conversion (aggrecanase; glycosaminoglycan 0.0001 μg/ml) | % conversion (aggrecanase; glycosaminoglycan 0.001 μg/ml) | % conversion (aggrecanase; glycosaminoglycan 0.01 μg/ml) | % conversion (aggrecanase; glycosaminoglycan 0.1 μg/ml) | % conversion (aggrecanase; glycosaminoglycan 1 μg/ml) | % conversion (aggrecanase; glycosaminoglycan 10 μg/ml) | factor Xa inhibitory activity (bovine factor Xa [1]) | IC50 [2] | factor Xa inhibitory activity of the reference standard (bovine factor Xa [3]) | aggrecanase-inhibiting activity (aggrecanase) |
| --- | --- | --- | --- | --- | --- | --- | --- | --- | --- | --- | --- |
| Carboxyl-Reduced Hyaluronic Acid Sodium Salt [example 1] | no | 100% | 100% | 100% | 100% | 100% | 100% | – | – | – | – |
| Carboxyl-Reduced and Persulfated Hyaluronic Acid Sodium Salt [example 3] | 0.025 µg/mL | 93% | 84.9% | 54.3% | 28% | 27.4% | 21% | 1.75 U/mg | 7.0 µg/mL | – | – |
| Enoxaparin | – | – | – | – | – | – | – | – | – | 100 U/mg | – |
| hyaluronic acid [reference compound] | – | – | – | – | – | – | – | – | – | – | no aggrecanase-inhibiting activity |
